Test results: patent US8288375B2, “Fungicidal bicyclic pyrazoles” (E.I. du Pont de Nemours and Company, priority 2007, dated 2012)

What was measured:
Plasmopara viticola = experiment: Test K: grape downy mildew, grape seedlings inoculated and then sprayed, disease rating; type: in vivo; conditions: 200 ppm test suspension
[1] = system: Puccinia recondite f sp. tritici; experiment: Test B: wheat leaf rust, test suspension sprayed on wheat seedlings, disease rating; type: in vivo; conditions: 200 ppm test suspension; for pest or weed control at 200 ppm: Puccinia, 192 h;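 as to all read-outs here: 200 ppm unless marked * meaning 40 ppm or ** meaning 10 ppm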
[2] = system: Colletotrichum orbiculare; experiment: Test F: cucumber Colletotrichum anthracnose, test suspension sprayed on cucumber seedlings, disease rating; type: in vivo; conditions: 200 ppm test suspension
Botrytis cinerea = experiment: Test H: tomato Botrytis, test suspension sprayed on tomato seedlings, disease rating; type: in vivo; conditions: 200 ppm test suspension
Septoria nodorum = experiment: Test D: wheat glume blotch, test suspension sprayed on wheat seedlings, disease rating; type: in vivo; conditions: 200 ppm test suspension; for pest or weed control at 200 ppm: Parastagonospora nodorum, 216 h
Fusarium graminearum = experiment: whole plant or invertebrate; type: in vivo; conditions: for Test C disease control rating: 200 ppm test suspension; for pest or weed control at 200 ppm: Fusarium graminearum, in Triticum aestivum, 192 h, read-out: Test C disease control rating
Pythium aphanidermatum = experiment: Test L: bluegrass pythium blight, test suspension sprayed on bluegrass seedlings, disease rating; type: in vivo; conditions: 200 ppm test suspension; for pest or weed control at 200 ppm: Pythium aphanidermatum, 120 h;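 as to all read-outs here: 200 ppm unless marked * meaning 40 ppm or ** meaning 10 ppm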
Rhizoctonia oryzae = experiment: Test I: turf brown patch, test suspension sprayed on creeping bent grass seedlings, disease rating; type: in vivo; conditions: 200 ppm test suspension
[3] = system: Erysiphe graminis f. sp. tritici; experiment: Test A: wheat powdery mildew, test suspension sprayed on wheat seedlings, disease rating; type: in vivo; conditions: 200 ppm test suspension, 100 = 100% disease control, 0 = no control; for pest or weed control at 200 ppm: Blumeria graminis, 192 h
Septoria tritici = experiment: Test E: wheat leaf blotch, test suspension sprayed on wheat seedlings, disease rating; type: in vivo; conditions: 200 ppm test suspension; for pest or weed control at 200 ppm: Zymoseptoria tritici, 504 h;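 as to all read-outs here: 200 ppm unless marked * meaning 40 ppm or ** meaning 10 ppm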
Phytophthora infestans = experiment: whole plant or invertebrate; type: in vivo; conditions: for Test J disease control rating: 200 ppm test suspension; for pest or weed control at 200 ppm: Phytophthora infestans, in Solanum lycopersicum, 120 h, read-out: Test J disease control rating

Compound	Test K disease control rating (Plasmopara viticola) [%]	Test B disease control rating [1] [%]	Test F disease control rating [2] [%]	Test H disease control rating (Botrytis cinerea) [%]	Test D disease control rating (Septoria nodorum) [%]	Test C disease control rating (Fusarium graminearum) [%]	Test L disease control rating (Pythium aphanidermatum) [%]	Test I disease control rating (Rhizoctonia oryzae) [%]	Test A disease control rating [3] [%]	Test E disease control rating (Septoria tritici) [%]	Test J disease control rating (Phytophthora infestans) [%]	pest or weed control at 200 ppm [1] [%]	pest or weed control at 200 ppm (Septoria nodorum) [%]	pest or weed control at 200 ppm (Fusarium graminearum) [%]	melting point [°C]	pest or weed control at 200 ppm (Pythium aphanidermatum) [%]	pest or weed control at 200 ppm [3] [%]	pest or weed control at 200 ppm (Septoria tritici) [%]	pest or weed control at 200 ppm (Phytophthora infestans) [%]
CC(C)(C)CNc1nccc(-c2c(-c3ccc(F)cc3)nn3c2CCCC3)n1 [compound 3]	0	91	0	0	0	99	0	0	47	72	0	–	–	–	–	–	–	–	–
CC(C)Nc1nccc(-c2c(-c3ccc(F)cc3)nn3c2CCOC3)n1 [Compound 112, 4-[2-(4-fluorophenyl)-4,5-dihydro-7H-pyrazolo[1,5-c][1,3]oxazin-3-yl]-N-(1-methylethyl)-2-pyrimidinamine]	–	–	–	–	–	–	–	–	–	–	–	95	93	100	167 to 169	99	0	99	99
CN(C)c1nccc(-c2c(-c3ccc(F)cc3)nn3c2CCCC3)n1 [compound 14]	0	91	0	0	73	100	0	0	95	99	60	–	–	–	–	–	–	–	–
Fc1ccc(-c2nn3c(c2-c2ccnc(NCC4CC4)n2)CCCC3)cc1 [Compound 24, N-(cyclopropylmethyl)-4-[2-(4-fluorophenyl)-4,5,6,7-tetrahydropyrazolo[1,5-a]pyridin-3-yl]-2-pyrimidinamine]	–	–	–	–	–	–	–	–	–	–	–	–	98	–	124 to 125	0	97	98	72
Fc1ccc(-c2nn3c(c2-c2ccnc(NC4CCC4)n2)CCCC3)cc1 [Compound 51, N-cyclobutyl-4-[2-(4-fluorophenyl)-4,5,6,7-tetrahydropyrazolo[1,5-a]pyridin-3-yl]-2-pyrimidinamine]	–	–	–	–	–	–	–	–	–	–	–	98	100	100	155 to 157	100	81	100	93
CC(C)Nc1nccc(-c2c(-c3ccccc3)nn3c2COCC3)n1 [Compound 116, 4-(6,7-dihydro-2-phenyl-4H-pyrazolo[5,1-c][1,4]oxazin-3-yl)-N-(1-methylethyl)-2-pyrimidinamine]	–	–	–	–	–	–	–	–	–	–	–	93	92	100	185 to 187	100	90	91	95
CCCC(C)Nc1nccc(-c2c(-c3ccc(F)cc3)nn3c2CCCC3)n1 (centres unmarked) [compound 4]	21	92	8	55	60	100	0	0	0	90	0	–	–	–	–	–	–	–	–
CCCNc1nccc(-c2c(-c3ccc(F)cc3)nn3c2CCCC3)n1 [compound 11]	0	99	83	97	99	100	100	44	93	98	100	–	–	–	–	–	–	–	–
Fc1ccc(-c2nn3c(c2-c2ccnc(Cl)n2)CCCN3)cc1	–	–	–	–	–	–	–	–	–	–	–	–	–	–	206 to 207	–	–	–	–
Fc1ccc(-c2nn3c(c2-c2ccnc(NC4CCCC4)n2)CCCC3)cc1 [compound 7]	0	99	90	82	98	100	0	0	82	99	93	–	–	–	–	–	–	–	–
NCCNc1nccc(-c2c(-c3ccc(F)cc3)nn3c2CCCC3)n1 [compound 16]	0	99	0	19	0	99	70	0	20	–	91	–	–	–	–	–	–	–	–
CCC(C)c1ccc(Nc2nccc(-c3c(-c4ccc(F)cc4)nn4c3CCCC4)n2)cc1 (centres unmarked) [compound 9]	0	97	79	81	92	99	0	0	52	0	0	–	–	–	–	–	–	–	–
Fc1ccc(-c2nn3c(c2-c2ccnc(NC4CC4)n2)CCC3)c(F)c1 [compound 94]	0	97	24	96	98	100	99	16	82	–	99	–	–	–	–	–	–	–	–
COCC(C)Nc1nccc(-c2c(-c3ccc(F)cc3)nn3c2CCC3)n1 (centres unmarked) [compound 84]	0	99	98	52	99	100	100	16	60	–	93	–	–	–	–	–	–	–	–
COc1ccc(-c2nn3c(c2-c2ccnc(NC4CC4)n2)CCC3)cc1 [compound 93]	0	0	0	0	0	99	90	0	0	–	95	–	–	–	–	–	–	–	–
